Laboratory results published in US5008282A, “Cyclic guanidine derivatives, anti-ulceratives and methods of manufacturing the same” (Kotobuki Seiyaku Co. Ltd., priority 1988, dated 1991).
Structures can show the parent of a compound that is named as a salt.

Legend:
[1] = test system: histamine-stimulated acid secretion; experiment: Inhibitory activities of gastric-acid secretion in the acute fistula rat; assay type: in vivo; conditions: 50 mg/kg oral, histamine.2HCl 10 mg/kg s.c. 4 hours after compound, Male Wistar rats, read-out: Total acid inhibition (inhibitory percent of compounds on histamine-stimulated acid secretion)
Protocol: Inhibitory activities of gastric-acid secretion in the acute fistula rat.
Determination of gastric-acid secretion is performed by the method of Y. Goto et al.(Expenentia 32, 946, (1976)). Male Wistar rats are anesthetized with urethane (1.2 g/kg, i.p.) 2 hours after the oral administration of compounds. A dual polyethylene cannula is introduced into the gastric lumen after ligation of the pylorus and the esophagus. The stomach is rinsed with 5 ml of saline through the gastric cannula at 15 min interval. The acid output during 15 minutes period is titrated with 0.01N NaOH. Histamine.2HCl (10 mg/kg, s.c.) is administered as a secretory agent 4 hours after the administration of compounds.

(H^+, K^+)ATPase = molecular target: T1, (H^+, K^+)ATPase (Sus scrofa, UniProt P19156); experiment: Inhibition of (H^+, K^+)ATPase activities; assay type: biochemical; conditions: pig gastric mucosa ATPase; pH 7.4; 2 mM MgCl2; 10 mM KCl; 37° C; read-out: (H^+,K^+)ATPase IC50 (Concentration of 50% inhibition)
T1 construct: ATPase is prepared from the pig gastric mucosa; from tissue; host or cells: pig gastric mucosa
Protocol: Inhibition of (H^+, K^+)ATPase activities. Inhibition of (H^+, K^+)ATPase activities is determined by the method of F. Fellenius et al., [Nature 290, 159-61, (1981)]. (H^+, K^30 )ATPase is prepared from the pig gastric mucosa and the test compound is incubated with 2 mM of […], 40 mM of tris-buffer (pH 7.4), 2 mM of MgCl2 and 10 mM of KCl at 37° C. Inorganic phosphate occurring by stimulation of ATPase is determined.

T1 sequence (P19156 2-1034 limits assumed): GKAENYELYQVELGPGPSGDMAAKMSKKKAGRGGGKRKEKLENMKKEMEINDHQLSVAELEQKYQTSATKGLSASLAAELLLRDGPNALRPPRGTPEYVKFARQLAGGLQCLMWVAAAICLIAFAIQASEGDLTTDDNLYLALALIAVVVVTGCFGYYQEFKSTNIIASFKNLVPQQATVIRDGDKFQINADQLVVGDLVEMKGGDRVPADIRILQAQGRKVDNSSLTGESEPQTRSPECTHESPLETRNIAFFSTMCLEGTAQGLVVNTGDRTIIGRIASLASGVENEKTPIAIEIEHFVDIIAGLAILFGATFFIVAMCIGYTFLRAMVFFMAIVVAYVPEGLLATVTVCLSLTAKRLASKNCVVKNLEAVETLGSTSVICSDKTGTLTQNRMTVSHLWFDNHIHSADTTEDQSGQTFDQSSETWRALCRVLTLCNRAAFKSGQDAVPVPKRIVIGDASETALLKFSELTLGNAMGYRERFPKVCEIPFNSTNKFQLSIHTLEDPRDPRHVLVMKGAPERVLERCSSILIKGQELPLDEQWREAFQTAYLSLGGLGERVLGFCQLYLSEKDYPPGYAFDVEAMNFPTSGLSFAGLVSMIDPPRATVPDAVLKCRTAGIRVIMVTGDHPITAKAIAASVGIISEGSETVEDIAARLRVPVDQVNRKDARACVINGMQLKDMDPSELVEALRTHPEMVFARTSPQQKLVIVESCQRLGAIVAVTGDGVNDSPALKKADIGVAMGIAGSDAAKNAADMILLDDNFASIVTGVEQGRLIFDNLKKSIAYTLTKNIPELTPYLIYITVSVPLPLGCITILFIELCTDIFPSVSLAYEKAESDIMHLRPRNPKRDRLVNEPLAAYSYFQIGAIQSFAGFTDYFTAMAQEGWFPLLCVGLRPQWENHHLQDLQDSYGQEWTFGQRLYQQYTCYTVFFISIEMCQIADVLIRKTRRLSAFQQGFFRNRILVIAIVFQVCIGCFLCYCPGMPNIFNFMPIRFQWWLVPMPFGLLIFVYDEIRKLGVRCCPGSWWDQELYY
T1 sequence (P18434 whole entry partner): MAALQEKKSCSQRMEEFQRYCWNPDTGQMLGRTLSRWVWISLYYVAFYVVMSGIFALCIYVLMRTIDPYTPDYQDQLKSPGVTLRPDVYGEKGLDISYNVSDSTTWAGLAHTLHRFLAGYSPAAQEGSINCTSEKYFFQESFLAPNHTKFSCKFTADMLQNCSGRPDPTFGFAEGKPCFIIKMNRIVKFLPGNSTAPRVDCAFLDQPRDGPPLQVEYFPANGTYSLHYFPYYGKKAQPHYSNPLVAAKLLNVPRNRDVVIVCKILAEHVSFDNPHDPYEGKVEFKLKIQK

SMILES | inhibition in vivo at 50 mg/kg [1] [%] | IC50 ((H^+, K^+)ATPase) [µM]
CC(=O)Sc1c(C)nc2nc3cccccc3n12 [Compound 65, 3-(Acetyl)thio-2-methyl-cyclohept[d]imidazo[1,2-a]imidazole] | 68.8 | –
Cn1ccn2c(SC(=O)COc3ccccc3)c(-c3ccccc3)nc12 [Compound 92, 5-(Phenoxyacetyl)thio-6-phenyl-1-methyl-1H-imidazo[1,2-a]imidazole] | 65.6 | 16
CCC(=O)Sc1c(-c2ccccc2)nc2n(C)c3ccccc3n12 [Compound 87, 3-(Propionyl)thio-2-phenyl-9-methyl-9H-imidazo[1,2-a]benzimidazole] | 53.8 | 25.8
Cc1nc2nc3cccccc3n2c1SC(=O)C(C)C [Compound 81, 3-(isobutyryl)thio-2-methyl-cyclohept[d]imidazo[1,2-a]imidazole] | 79.8 | 2.79
c1ccn2c(c1)c(SCCN1CCCCC1)n1c3c(nc12)CCCCC3 [Compound 23, 13-[2-(1-Piperidino)ethyl]thio-pyrido[1',2':3,4]imidazo[1,2-a]7,8,9,10,11-pentahydro-cycloheptimidazole] | – | 91.3
C=CCSc1c2ccccn2c2nc3c(n12)CCCCC3 [Compound 16, 13-(2-Propenyl)thio-pyrido[1',2':3,4]imidazo[1,2-a]-7,8,9,10,11pentahydro-cycloheptimidazole] | – | 16.5
CC(=O)Sc1c(-c2ccc(Cl)cc2)nc2nc3cccccc3n12 [Compound 57, 3-(acetyl)thio-2-(4-chlorophenyl)-cyclohept[d]imidazo[1,2-a]imidazole] | – | 0.79
COCC(=O)Sc1c(C)nc2nc3cccccc3n12 [Compound 72, 3-(Methoxyacetyl)thio-2-methyl-cyclohept[d]imidazo[1,2-a]imidazole] | – | 5.9
COCCC(=O)Sc1c(C)nc2nc3cccccc3n12 [Compound 75, 3-(3-MethoxyPropionyl)thio-2-methyl-cyclohept[d]imidazo[1,2-a]imidazole] | – | 55.1
CC(=O)Sc1c(-c2ccc(F)cc2)nc2nc3cccccc3n12 [Compound 55, 3-(acetyl)thio-(4-fluorophenyl)-cyclohept[d]imidazo[1,2-a]imidazole] | – | 1.4
C#CCSc1c2ccccn2c2nc3c(n12)CCCCC3 [Compound 18] | – | 3.06
Cc1nc2nc3cccccc3n2c1SC(=O)C(C)(C)C [Compound 68, 3-(Pivaloyl)thio-2-methyl-cyclohept[d]imidazo[1,2-a]imidazole] | 73.9 | –
C/C=C/C(=O)Sc1c(-c2ccccc2)nc2nc3cccccc3n12 [Compound 38, 3-(Crotonoyl)thio-2-phenyl-cyclohept[d]imidazo[1,2-a]imidazole] | 63.4 | 13.3
CC#CCSc1c2ccccn2c2nc3c(n12)CCCCC3 [Compound 19, 13-(2-Butynyl)thio-pyrido[1',2':3,4]imidazo[1,2-a]-7,8,9,10,11pentahydro-cycloheptimidazole] | – | 47.3
CCCCC(=O)Sc1c(-c2ccccc2)nc2nc3ccc(C(C)C)ccc3n12 [Compound 53, 3-(valeryl)thio-2-phenyl-7-isopropyl-cyclohept[d]imidazo[1,2-a]imidazole] | 73.7 | 1.95
COCC(=O)Sc1c(-c2ccccc2)nc2nc3cccccc3n12 [Compound 43, 3-(Methoxyacetyl)thio-2-phenyl-cyclohept[d]imidazo[1,2-a]imidazole] | 53.8 | 2.23
COCCC(=O)Sc1c(-c2ccccc2)nc2nc3cccccc3n12 [Compound 44, 3-(3-Methoxypropionyl)thio-2-phenyl-cyclohept[d]imidazo[1,2-a]imidazole] | 80.7 | 8.75
CC(=O)Sc1c(-c2ccccc2)nc2nc3cccccc3n12 [Compound 34, 3-(Acetyl)thio-2-phenyl-cyclohept[d]imidazo[1,2-a]imidazole] | 76.6 | 2.47
CCC(=O)Sc1c2ccccn2c2nc3c(n12)CCCCC3 [Compound 21, 13-(Propionyl)thio-pyrido[1',2':3,4]imidazo[1,2-a]-7,8,9,10,11pentahydro-cycloheptimidazole fumarate] | 64.9 | 18.1
CCC(=O)Sc1c(-c2ccccc2)nc2nc3cccccc3n12 [Compound 35, 3-(Propionyl)thio-2-phenyl-cyclohept[d]imidazo[1,2-a]imidazole] | 54 | 10.5
Cc1nc2nc3cccccc3n2c1SC(=O)c1ccccn1 [Compound 76, 3-(Picolinoyl)thio-2-methyl-cyclohept[d]imidazo[1,2-a]imidazole] | 83.7 | –
O=C(Sc1c(-c2ccccc2)nc2nc3cccccc3n12)c1ccccn1 [Compound 48, 3-(Picolinoyl)thio-2-phenyl-cyclohept[d]imidazo[1,2-a]imidazole] | – | 2.72
C=CC(=O)Sc1c(-c2ccccc2)nc2nc3cccccc3n12 [Compound 37, 3-(Acryloyl)thio-2-phenyl-cyclohept[d]imidazo[1,2-a]imidazole] | 51.5 | 2.2
C/C=C/C(=O)Sc1c(C)nc2nc3cccccc3n12 [Compound 69, 3-(Crotonoyl)thio-2-methyl-cyclohept[d]imidazo[1,2-a]imidazole] | 83.5 | 22.7
CCCCC(=O)Sc1c(C)nc2nc3cccccc3n12 [Compound 82, 3-(valeryl)thio-2-methyl-cyclohept [d]imidazo[1,2-a]imidazole] | 81.2 | –
Cc1nc2nc3cccccc3n2c1SC(=O)c1ccccc1 [Compound 77, 3-(Benzoyl)thio-2-methyl-cyclohept[d]imidazo[1,2-a]imidazole] | 82.5 | –
CCC(=O)Sc1c(C)nc2nc3cccccc3n12 [Compound 66, 3-(Propionyl)thio-2-methyl-cyclohept[d]imidazo[1,2-a]imidazole] | 63.7 | 17.5
